Experimental data: US5189021A, “Method of treating precocious puberty” (Roussel Uclaf, priority 1979, dated 1993)

Assays:
ovarian steroidogenosis = assay: Inhibitory activity on ovarian steroidogenesis in women; format: in vivo; settings: for reduction of seric levels of progesterone compared to the controls: typical levels (sheet 3)
Method: The inhibitory activity of [D Ser (tbu)^6 of des GlyNH2^10 ] LH-RH ethylamide on ovarian steroidogenosis in women was determined on 6 women aged 26 to 35 years with normal and regular menstrual cycles and without prior endocrinal or gynecological problems. The study was conducted for 6 consecutive cycles consisting of 2 pretreatment cycles, 2 treatment cycles and 2 post-treatment cycles. Two drops of a solution containing 500 μg of [D Ser (tbu)^6 des GlyNH2^10 ] LH-RH ethylamide were deposited on each nostril at 8 A.M. and 5 P.M. of a day between the 4th and 9th day after the peak of LH-day 0. Daily blood samples were taken between 4 and 6 P.M. to measure seric levels of LH, FSH, progesterone and estradiol which were determined by radioimmumo-logictests with double antibodies. The antibodies to measure LH and FSH were furnished by the National Pituitory Agency of N.I.H. of Bethesda, Md.
Estradiol and progesterone were measured with highly specific antibodies developed against 7-(O-carboxymethyl)-oxime of estradiol and 12-(O-carboxymethyl)-oxime of progesterone, respectively [3H] 17β-estradiol and ^125 I-progesterone-12-[O-carboxymethyl)-oxime]used as tracers. The serum was extracted with benzene and the steroids were separated with a LH-20 column before the determination. The radioimmunological results were exploited by the program derived from model II of Rodbard and Lewald as in Example 1 and the statistical significance was measured by the multiple level test of Ducan-Kramer of Example 1. The results are shown in the graphs of sheets 3 to 5 of the Figures.

[1] = tested on: testicular steroidogensis; assay: Inhibitory activity against testicular steroidogenesis in men in good health, single intranasal dose; format: in vivo
Method: The inhibitory activity of [D Ser (tbu)^6 of des GlyNH^10 ] LH-RH ethylamide (described in German application Ser. No. 2,438,350) against testicular steroidogensis in men in good health was determined on men in good health aged 30 to 40 years. The said product was administered intranasally at a dose of 500 μg in a few drops of distilled water at 8 A.M. on the third day of the test. For 2 days prior to the treatment and for 6 days after the treatment, samples of blood were taken daily at 8 A.M., 3 P.M. and 10 P.M. On the day of administration of the LH-RH agonist, blood samples were taken at 11 A.M. and 6 P.M.
The seric concentrations of LH and FSH were measured by radioimmuno-logic dosages with double antibodies and the antibodies for measuring LH and FSH were furnished by the National Pituitary Agency of N.I.H. in Bethesda, Md. The seric concentrations of steroids was measured by radio-immuno-logic dosages in which one ml of serum was extracted with ether and the steroids were separated on a LH-20 column before measuring with radioimmuno-logic dosages. The radio-immuno-logic dosage results were determined by a program derived from model II of Rodbard et al [Second Karolinska Symposium on Research Methods in Reproductive Endroerinology Diczfalusky Editor, Copenhague (1970), p. 79-103]. The statistical significance was determined by the "multiple level test" of Duncan-Kramer [Kramer, Biometrics, Vol 12 (1956), p. 307]. The results are shown in the graphs on sheet 1 of the Figures filed herewith.

[2] = tested on: testicular steriodogenosis; assay: Inhibitory activity on testicular steroidogenesis in a patient with prostate cancer; format: in vivo, human; settings: 500 μg intranasally twice a day
Description: The inhibitory activity of [D Ser (tbu)^6 of des GlyNH2^10 ] […] The results are reported in the graphs of sheet 2 of the Figures.

[3] = 3rd day following administration, intranasal 500 μg
[4] = after single intranasal dose of 500 μg

CCNC(=O)[C@@H]1CCCN1C(=O)[C@H](CCCNC(=N)N)NC(=O)[C@H](CC(C)C)NC(=O)[C@@H](COC(C)(C)C)NC(=O)[C@H](Cc1ccc(O)cc1)NC(=O)[C@H](CO)NC(=O)[C@H](Cc1c[nH]c2ccccc12)NC(=O)[C@H](Cc1c[nH]cn1)NC(=O)[C@@H]1CCC(=O)N1 [[D Ser (tbu)^6 des GlyNH2^10] LH-RH ethylamide]
level of progesterone reduced as compared to the controls (ovarian steroidogenosis; 12 cycles, sheet 5, scale 13 to 127%): 46% | level of progesterone as % of control values (pretreatment cycles = 100%) (ovarian steroidogenosis; cycles of post-treatment, 12 cycles): 99% | level of progesterone as % of control values (pretreatment cycles = 100%) (ovarian steroidogenosis; cycles of treatment, 12 cycles): 46% | reduction of seric levels of progesterone compared to the controls (ovarian steroidogenosis; first cycle of treatment): 13% | reduction of seric levels of progesterone compared to the controls (ovarian steroidogenosis; second cycle of treatment): 34% | level of seric progesterone in the 2 cycles of treatment (ovarian steroidogenosis; sheet 4): accelerated diminution | concentration of 17-OH-progesterone relative to the initial control values [1, 3]: 40% | concentration of testosterone relative to the initial control values [1, 3]: 50% | day on which the steroid level returned to normal [1, 4]: fourth day | duration of the drop of seric levels of testicular steroids (testosterone and its precursors) [1, 4]: 3 days | LH and FSH plasmatic levels ([1]; intranasal 500 μg): increase | seric concentration of pregnenolone, 17-OH-pregnenolone, progesterone, 17-OH-progesterone, Δ5-androstene-3β,17β-diol and testosterone ([1]; on the day of treatment, intranasal 500 μg): increased | diminution of the level of testosterone ([1]; single intranasal dose of 500 μg, human, 3rd day following administration): 50% | androgenic steroids (plasmatic level) ([2]; prostate cancer patient): diminution | level of testosterone ([2]; two weeks of treatment): stabilized at a very low level
